# Where two headings read alike, the source gives them in different places.
# Legend:
# Escherichia coli = experiment: In vivo antibacterial activity in mice infected with Escherichia coli (intraperitoneal), compound given orally at infection and 4 hours later; mortality through third day; conditions: for ED50: Escherichia coli, po, 72 h
# Experimental: Use of the ester of this invention as antibacterial agents is exemplified by data for 6,7-methylene-1-(2,2,2-trifluoroethyl)-4(1H)-quinolone-3-carboxylic acid, trimethylacetoxymethyl ester. In vivo determinations of antibacterial activity are carried out in mice.
# The test bacterium is grown into bacteriological medium from frozen stock cultures. The culture is centrifuged, resuspended, centrifuged again, resuspended in fresh bacteriological medium, and diluted to the proper infective concentration. Mice are infected by intraperitoneal or intravenous injection of 0.2 ml. of the diluted bacterial culture.
# Test compounds are dissolved or suspended in water containing 0.01% Tween 80 by either sonication or bead-milling to break up the materials in order to dissolve them or provide a fine suspension for the insoluble compounds. Concentrations are prepared so that when 0.2 ml. of the solution or suspension is administered to mice orally by intubation, the correct amount of compound in mg/kg of mouse is provided.
# The mice are dosed with test compound orally by intubation at appropriate intervals following infection and mortality is recorded through the third day. The effective dose 50 (ED50) and lethal dose for 50% kill (LD50) are calculated by the Reed-Muench method.
# In Table I are the results of a test in mice infected with Escherichia coli by the intraperitoneal route. Compound was administered orally by intubation immediately following infection and again 4 hours after infection.
# ^1 Animals dosed orally at the time of infection and again four hours
# ^2 Determined by agar plate counts and stock culture titration, the
# dose is the LD50 multiplied by the number preceding it.
# [1] = Biological activity of stable versus metastable crystalline form (test not specified); type: in vivo; conditions: probably due to poor absorption
# [2] = 18 LD50 E. coli infection, 10 mg/kg PO, at infection and again 4 hours later
# [3] = 18 LD50 E. coli infection, 30 mg/kg PO, at infection and again 4 hours later
# [4] = 18 LD50 E. coli infection, 100 mg/kg PO, at infection and again 4 hours later
# [5] = 135 LD50 E. coli infection, 10 mg/kg PO, at infection and again 4 hours later
# [6] = 135 LD50 E. coli infection, 30 mg/kg PO, at infection and again 4 hours later
# [7] = 135 LD50 E. coli infection, 100 mg/kg PO, at infection and again 4 hours later
# [8] = 4 LD50 E. coli infected mice, oral, read-out: ED50
# [9] = 2 LD50 E. coli infected mice, oral, read-out: ED50
smiles,measurement,setting,value
"CC(C)(C)C(=O)OCOC(=O)c1cn(CC(F)(F)F)c2cc3c(cc2c1=O)OCO3 [Example 6, 6,7-Methylenedioxy-1-(2,2,2-trifluoroethyl)-4(1H)-quinolone-3-carboxylic acid, trimethylacetoxymethyl ester]",% Survivors,Escherichia coli; [2],33%
same,% Survivors,Escherichia coli; [3],50%
same,% Survivors,Escherichia coli; [4],75%
same,% Survivors,Escherichia coli; [5],17%
same,% Survivors,Escherichia coli; [6],8%
same,% Survivors,Escherichia coli; [7],50%
same,ED50,"Escherichia coli; 18 LD50 E. coli infection, PO, at infection and again 4 hours later, Reed-Muench, read-out: ED50",24 mg/kg
same,ED50,"Escherichia coli; 135 LD50 E. coli infection, PO, at infection and again 4 hours later, Reed-Muench, read-out: ED50",77 mg/kg
same,antibacterial activity compared with oxolinic acid,"Escherichia coli; systemic Escherichia coli infection of mice, two infecting levels of bacteria",significantly greater antibacterial activity than does oxolinic acid
"CC(C)C(=O)OCOC(=O)c1cn(CC(F)(F)F)c2cc3c(cc2c1=O)OCO3 [Example 6A, 6,7-methylenedixoy-1-(2,2,2-trifluoroethyl)-4(1H)-quinolone-3-carboxylic acid, iso-butyryloxymethyl ester]",ED50,Escherichia coli; [8],73 mg/kg
"CCC(C)(C)C(=O)OCOC(=O)c1cn(CC(F)(F)F)c2cc3c(cc2c1=O)OCO3 [Example 6B, 6,7-methylenedioxy-1-(2,2,2-trifluoroethyl)-4(1H)-quinolone-3-carboxylic acid, 2,2-dimethyl-n-butyryloxymethyl ester]",ED50,Escherichia coli; [8],40 mg/kg
"CCCCCC(=O)OCOC(=O)c1cn(CC(F)(F)F)c2cc3c(cc2c1=O)OCO3 [Example 6C, 6,7-methylenedioxy-1-(2,2,2-trifluoroethyl)-4(1H)-quinolone-3-carboxylic acid, n-hexanoyloxymethyl ester]",ED50,Escherichia coli; [8],25 mg/kg
"CCCCCCCCCC(=O)OCOC(=O)c1cn(CC(F)(F)F)c2cc3c(cc2c1=O)OCO3 [Example 6D, 6,7-methylenedioxy-1-(2,2,2-trifluoroethyl)-4(1H)-quinolone-3-carboxylic acid, n-decanoyloxymethyl ester]",ED50,Escherichia coli; [9],19 mg/kg
"O=C(OCOC(=O)C1CCCCC1)c1cn(CC(F)(F)F)c2cc3c(cc2c1=O)OCO3 [Example 6E, 6,7-methylenedioxy-1-(2,2,2-trifluoroethyl)-4(1H)-quinolone-3-carboxylic acid, cyclohexanecarbonyloxymethyl ester]",ED50,Escherichia coli; [9],29 mg/kg
"O=C(OCOC(=O)c1cn(CC(F)(F)F)c2cc3c(cc2c1=O)OCO3)c1ccccc1 [Example 6F, 6,7-methylenedioxy-1-(2,2,2-trifluoroethyl)-4(1H)-quinolone-3-carboxylic acid, benzoyloxymethyl ester]",ED50,Escherichia coli; [8],34 mg/kg
"CCn1cc(C(=O)O)c(=O)c2cc3c(cc21)OCO3 [Oxolinic Acid, reference compound]",% Survivors,Escherichia coli; [2],8%
same,% Survivors,Escherichia coli; [3],33%
same,% Survivors,Escherichia coli; [4],83%
same,% Survivors,Escherichia coli; [5],17%
same,% Survivors,Escherichia coli; [6],17%
same,% Survivors,Escherichia coli; [7],25%
same,ED50,"Escherichia coli; 18 LD50 E. coli infection, at infection and again 4 hours later, Reed-Muench",45 mg/kg
same,ED50,"Escherichia coli; 135 LD50 E. coli infection, at infection and again 4 hours later, Reed-Muench",> 100 mg/kg
"CC(C)(C)C(=O)OCOC(=O)c1cn(CC(F)(F)F)c2cc3c(cc2c1=O)OCO3 [stable form, 6,7-Methylenedioxy-1-(2,2,2-trifluoroethyl)-4(1H)-quinolone-3-carboxylic acid, trimethylacetoxymethyl ester]",biological activity of stable form compared with meta-stable form,[1],less active than the meta-stable
